{"source": "patent US9115147B2", "about": "“Tricyclic derivatives and their pharmaceutical use and compositions” (Cephalon, Inc., priority 2009, dated 2015)", "data": [{"target": "T1, human 5-HT6 receptor (Homo sapiens, UniProt P50406)", "T1 construct": "host or cells: CHO-K1 cells, stably transfected; membranes prepared in house", "T1 sequence (P50406 whole entry)": "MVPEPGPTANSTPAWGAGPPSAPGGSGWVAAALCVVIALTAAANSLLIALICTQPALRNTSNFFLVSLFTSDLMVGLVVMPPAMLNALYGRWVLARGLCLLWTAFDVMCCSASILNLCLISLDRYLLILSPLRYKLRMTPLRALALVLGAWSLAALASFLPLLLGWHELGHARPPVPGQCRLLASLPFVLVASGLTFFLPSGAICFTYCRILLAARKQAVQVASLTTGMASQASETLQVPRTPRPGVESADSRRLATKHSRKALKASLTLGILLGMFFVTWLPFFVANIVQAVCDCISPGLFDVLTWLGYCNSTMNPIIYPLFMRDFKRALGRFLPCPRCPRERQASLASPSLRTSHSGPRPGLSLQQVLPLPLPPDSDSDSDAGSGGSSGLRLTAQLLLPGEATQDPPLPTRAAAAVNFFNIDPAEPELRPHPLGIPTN", "assay": "Human 5-HT6 Receptor Binding Assay ([3H]LSD, scintillation beads)", "settings": "Human 5-HT6 Ki app (nM), membranes of CHO-K1 cells with recombinant human 5-HT6 receptor, 4 nM [3H]LSD, Cheng-Prusoff", "experimental": "(§1) Human 5-HT6 Receptor Binding Assay\n(§2) Membranes were prepared from CHO-K1 cells stably transfected with the human 5-HT6 receptor (Euroscreen; ES-316-C). The cells were grown in Gibco Advanced DMEM-F12 (Cat#12634010) containing 2% dialyzed FBS (Hyclone Cat#SH30079.03). The cells were harvested in phosphate buffered saline (PBS) containing 0.1 mM EDTA and pelleted by centrifugation (1000×g), the supernatant was discarded and the pellets were stored at −80° C. prior to membrane preparation. Membranes were prepared as previously described (J Bio Chem. 1992, 267 (14) 9844-51). Briefly, frozen cell pellet was resuspended in a lysis buffer containing 5 mM Tris-HCl (pH 7.5), 5 mM EDTA and 1 complete EDTA-free protease inhibitor tablet (Roche Applied Science, Indianapolis, Ind.) per 50 mL buffer, and homogenized with a tissue homogenizer. The cell lysate was then centrifuged at 40,000×g for 30 min at 4° C. to collect the membranes. The membrane pellets were washed in membrane buffer (50 mM Tris-HCl (pH 7.5), 0.6 mM EDTA, 5 mM MgCl2, 1 complete EDTA-free protease inhibitor tablet per 50 mL buffer) using a tissue homogenizer. The membranes were centrifuged at 40,000×g for 30 min at 4° C. and the pellets were resuspended in membrane buffer containing 250 mM sucrose, and protein concentration was determined using the Coomassie Plus kit (Pierce Biotechnology, Rockford, Ill.).\n(§3) Membranes prepared from cells expressing recombinant human 5-HT6 receptor (h5-HT6) were resuspended in assay buffer containing 50 mM Tris HCl, (pH7.4), 4 mM CaCl2, 10 μg/mL saponin, and 0.1% (w/v) ascorbic acid. Membranes were preincubated using 1.75 μg membrane protein and 0.25 mg FlashBlue scintillation beads (PerkinElmer catalogue #FB001) per well at 4° C. for 30 min. […] Test compounds or assay controls for total and non-specific binding were diluted in DMSO as 100× solutions and serially diluted by half log concentrations on a Perkin Elmer JANUS Automated Workstation. Serotonin (10 μM final concentration) was used to determine non-specific binding in the assay. Plates were read using the Microbeta Trilux 1450 LSC and luminescence counter. Data were analyzed by nonlinear […] using the dose-response equation (variable slope) to calculate IC50 in XLfit4 (ID Business Solutions Inc.): y=(Bottom+((Top−Bottom)/(1+((IC50/x)^Hill slope))))\n(§4) Ki value was then calculated according to the Cheng-Prusoff method using the equation below (Cheng and Prusoff, 1973): Ki, app=IC50/(1+([radioligand]/Kd))", "units": {"Ki": "nM"}, "values": [{"molecule": "Cc1cccc(S(=O)(=O)c2ccc3c(c2)OCC2NCCC32)n1", "note": "(single isomer, unassigned) [Example 23, 7-[(6-methylpyridin-2-yl)sulfonyl]-1,2,3,3a,4,9b-hexahydrochromeno[3,4-b]pyrrole]", "Ki": "< 500"}, {"molecule": "O=S(=O)(c1cncc(Br)c1)c1ccc2c(c1)OCC1NCCC21", "note": "(single isomer, unassigned) [Example 28, 7-[(5-bromopyridin-3-yl)sulfonyl]-1,2,3,3a,4,9b-hexahydrochromeno[3,4-b]pyrrole]", "Ki": "< 500"}, {"molecule": "O=S(=O)(c1cncc(F)c1)c1ccc2c(c1)OCC1NCCC21", "note": "(single isomer, unassigned) [Example 29, 7-[(5-fluoropyridin-3-yl)sulfonyl]-1,2,3,3a,4,9b-hexahydrochromeno[3,4-b]pyrrole]", "Ki": "< 500"}, {"molecule": "O=S(=O)(c1cncc(Cl)c1)c1ccc2c(c1)OCC1NCCC21", "note": "(single isomer, unassigned) [Example 30, 7-[(5-chloropyridin-3-yl)sulfonyl]-1,2,3,3a,4,9b-hexahydrochromeno[3,4-b]pyrrole]", "Ki": "< 500"}, {"molecule": "O=S(=O)(c1cncc(F)c1)c1ccc2c(c1)OCC1NCCC21", "note": "(single isomer, unassigned) [Example 32, 7-[(5-fluoropyridin-3-yl)sulfonyl]-1,2,3,3a,4,9b-hexahydrochromeno[3,4-b]pyrrole]", "Ki": "> 1000"}, {"molecule": "COc1cncc(S(=O)(=O)c2ccc3c(c2)OCC2NCCC32)c1", "note": "(single isomer, unassigned) [Example 33, 7-[(5-methoxypyridin-3-yl)sulfonyl]-1,2,3,3a,4,9b-hexahydrochromeno[3,4-b]pyrrole]", "Ki": "< 500"}, {"molecule": "COc1cncc(S(=O)(=O)c2ccc3c(c2)OCC2NCCC32)c1", "note": "(single isomer, unassigned) [Example 35, 7-[(5-methoxypyridin-3-yl)sulfonyl]-1,2,3,3a,4,9b-hexahydrochromeno[3,4-b]pyrrole]", "Ki": "> 1000"}]}, {"target": "T1, human 5-HT6 receptor", "assay": "Human 5-HT6 Receptor Binding Assay ([3H]LSD, scintillation beads)", "settings": "membranes of CHO-K1 cells with recombinant human 5-HT6 receptor, 4 nM [3H]LSD, Cheng-Prusoff; read-out: Human 5-HT6 Ki app", "experimental": "as §1, §2, §3, §4", "units": {"Ki": "nM"}, "values": [{"molecule": "CC(C)Oc1cc(F)cc(S(=O)(=O)c2ccc3c(c2)OCC2NCCC32)c1", "note": "(single isomer, unassigned) [Example 27, 7-{[3-fluoro-5-(propan-2-yloxy)phenyl]sulfonyl}-1,2,3,3a,4,9b-hexahydrochromeno[3,4-b]pyrrole]", "Ki": "< 500"}, {"molecule": "COc1cc(F)cc(S(=O)(=O)c2ccc3c(c2)OCC2NCCC32)c1", "note": "(single isomer, unassigned) [Example 36, 7-[(3-fluoro-5-methoxyphenyl)sulfonyl]-1,2,3,3a,4,9b-hexahydrochromeno[3,4-b]pyrrole]", "Ki": "< 500"}, {"molecule": "O=S(=O)(c1ccc2c(c1)OCC1NCCC21)c1cccc2c1CCO2", "note": "(single isomer, unassigned) [Example 37, 7-(2,3-dihydro-1-benzofuran-4-ylsulfonyl)-1,2,3,3a,4,9b-hexahydrochromeno[3,4-b]pyrrole]", "Ki": "< 500"}, {"molecule": "CN(C)C(=O)c1cccc(S(=O)(=O)c2ccc3c(c2)OC[C@H]2NCC[C@@H]32)c1", "note": "(single isomer, unassigned) [Example 38]", "Ki": "< 500"}, {"molecule": "CC(C)COc1cc(F)cc(S(=O)(=O)c2ccc3c(c2)OCC2NCCC32)c1", "note": "(single isomer, unassigned) [Example 39, 7-{[3-fluoro-5-(2-methylpropoxy)phenyl]sulfonyl}-1,2,3,3a,4,9b-hexahydrochromeno[3,4-b]pyrrole]", "Ki": "< 500"}, {"molecule": "CCOc1cc(F)cc(S(=O)(=O)c2ccc3c(c2)OCC2NCCC32)c1", "note": "(single isomer, unassigned) [Example 40, 7-[(3-ethoxy-5-fluorophenyl)sulfonyl]-1,2,3,3a,4,9b-hexahydrochromeno[3,4-b]pyrrole]", "Ki": "< 500"}, {"molecule": "O=S(=O)(c1ccc2c(c1)OCC1NCCC21)c1cccc(F)c1F", "note": "(single isomer, unassigned) [Example 41, 7-[(2,3-difluorophenyl)sulfonyl]-1,2,3,3a,4,9b-hexahydrochromeno[3,4-b]pyrrole]", "Ki": "< 500"}, {"molecule": "O=S(=O)(c1ccc2c(c1)OCC1NCCC21)c1cc(F)cc(F)c1F", "note": "(single isomer, unassigned) [Example 42, 7-[(2,3,5-trifluorophenyl)sulfonyl]-1,2,3,3a,4,9b-hexahydrochromeno[3,4-b]pyrrole]", "Ki": "< 500"}, {"molecule": "CC(C)Oc1cc(F)cc(S(=O)(=O)c2ccc3c(c2)OCC2NCCC32)c1", "note": "(single isomer, unassigned) [Example 43, 7-{[3-fluoro-5-(propan-2-yloxy)phenyl]sulfonyl}-1,2,3,3a,4,9b-hexahydrochromeno[3,4-b]pyrrole]", "Ki": "< 500"}, {"molecule": "COc1cc(F)cc(S(=O)(=O)c2ccc3c(c2)OCC2NCCC32)c1", "note": "(single isomer, unassigned) [Example 44, 7-[(3-fluoro-5-methoxyphenyl)sulfonyl]-1,2,3,3a,4,9b-hexahydrochromeno[3,4-b]pyrrole]", "Ki": "< 500"}, {"molecule": "O=S(=O)(c1ccc2c(c1)OCC1NCCC21)c1cccc2c1CCO2", "note": "(single isomer, unassigned) [Example 45, 7-(2,3-dihydro-1-benzofuran-4-ylsulfonyl)-1,2,3,3a,4,9b-hexahydrochromeno[3,4-b]pyrrole]", "Ki": "< 500"}, {"molecule": "CN(C)C(=O)c1cccc(S(=O)(=O)c2ccc3c(c2)OC[C@@H]2NCC[C@H]32)c1", "note": "(single isomer, unassigned) [Example 46]", "Ki": "< 500"}, {"molecule": "CC(C)COc1cc(F)cc(S(=O)(=O)c2ccc3c(c2)OCC2NCCC32)c1", "note": "(single isomer, unassigned) [Example 47, 7-{[3-fluoro-5-(2-methylpropoxy)phenyl]sulfonyl}-1,2,3,3a,4,9b-hexahydrochromeno[3,4-b]pyrrole]", "Ki": "< 500"}, {"molecule": "CCOc1cc(F)cc(S(=O)(=O)c2ccc3c(c2)OCC2NCCC32)c1", "note": "(single isomer, unassigned) [Example 48, 7-[(3-ethoxy-5-fluorophenyl)sulfonyl]-1,2,3,3a,4,9b-hexahydrochromeno[3,4-b]pyrrole]", "Ki": "< 500"}, {"molecule": "O=S(=O)(c1ccc2c(c1)OCC1NCCC21)c1cccc(F)c1F", "note": "(single isomer, unassigned) [Example 49, 7-[(2,3-difluorophenyl)sulfonyl]-1,2,3,3a,4,9b-hexahydrochromeno[3,4-b]pyrrole]", "Ki": "< 500"}, {"molecule": "O=S(=O)(c1ccc2c(c1)OCC1NCCC21)c1cc(F)cc(F)c1F", "note": "(single isomer, unassigned) [Example 50, 7-[(2,3,5-trifluorophenyl)sulfonyl]-1,2,3,3a,4,9b-hexahydrochromeno[3,4-b]pyrrole]", "Ki": "< 500"}, {"molecule": "O=S(=O)(c1cncc(C(F)(F)F)c1)c1ccc2c(c1)OCC1NCCC21", "note": "(single isomer, unassigned) [Example 51, 7-{[5-(trifluoromethyl)pyridin-3-yl]sulfonyl}-1,2,3,3a,4,9b-hexahydrochromeno[3,4-b]pyrrole]", "Ki": "< 500"}, {"molecule": "O=S(=O)(c1cncc(C(F)(F)F)c1)c1ccc2c(c1)OCC1NCCC21", "note": "(single isomer, unassigned) [Example 52, 7-{[5-(trifluoromethyl)pyridin-3-yl]sulfonyl}-1,2,3,3a,4,9b-hexahydrochromeno[3,4-b]pyrrole]", "Ki": "500 to 1000"}, {"molecule": "O=S(=O)(c1ccccc1)c1ccc2c(c1)C1CCNC1CO2", "note": "(single isomer, unassigned) [Example 53, 8-(phenylsulfonyl)-1,2,3,3a,4,9b-hexahydrochromeno[3,4-b]pyrrole]", "Ki": "< 500"}, {"molecule": "O=S(=O)(c1ccccc1)c1ccc2c(c1)C1CCNC1CO2", "note": "(single isomer, unassigned) [Example 54, 8-(phenylsulfonyl)-1,2,3,3a,4,9b-hexahydrochromeno[3,4-b]pyrrole]", "Ki": "< 500"}]}, {"target": "T1, human 5-HT6 receptor", "assay": "Human 5-HT6 Receptor Binding Assay ([3H]LSD, scintillation beads)", "settings": "read-out: Human 5-HT6 Ki app; membranes of CHO-K1 cells with recombinant human 5-HT6 receptor, 4 nM [3H]LSD, Cheng-Prusoff", "experimental": "as §1, §2, §3, §4", "units": {"Ki": "nM"}, "values": [{"molecule": "Cc1cccc(S(=O)(=O)c2ccc3c(c2)OCC2NCCC32)n1", "note": "(single isomer, unassigned) [Example 24, 7-[(6-methylpyridin-2-yl)sulfonyl]-1,2,3,3a,4,9b-hexahydrochromeno[3,4-b]pyrrole]", "Ki": "< 500"}, {"molecule": "O=S(=O)(c1cncc(Br)c1)c1ccc2c(c1)OCC1NCCC21", "note": "(single isomer, unassigned) [Example 31, 7-[(5-bromopyridin-3-yl)sulfonyl]-1,2,3,3a,4,9b-hexahydrochromeno[3,4-b]pyrrole]", "Ki": "< 500"}, {"molecule": "O=S(=O)(c1cncc(Cl)c1)c1ccc2c(c1)OCC1NCCC21", "note": "(single isomer, unassigned) [Example 34, 7-[(5-chloropyridin-3-yl)sulfonyl]-1,2,3,3a,4,9b-hexahydrochromeno[3,4-b]pyrrole]", "Ki": "< 500"}]}]}
